Patent publication US7868037B2 (PTC Therapeutics, Inc., priority 2004, dated 2011)

What was measured:
HCV replicon = test: microbe, parasite or virus in culture; type: cell-based, hepatitis C virus; settings: Hepatitis C virus, read-out: Replicon IC50 μM

Compound	melting point	IC50 (HCV replicon)
CCOc1ccc2c(C#N)c(-c3ccc(N4C(=O)CNC4=O)cc3)n(CC)c2c1 [Compound 779, 2-[4-(2,5-dioxo-imidazolidin-1-yl)-phenyl]-6-ethoxy-1-ethyl-1H-indole-3-carbonitrile]	265 to 267 °C	< 0.5 µM
CCn1c(-c2ccc(C(=O)N3CCOCC3)cc2)c(C#N)c2cc(OC)ccc21 [Compound 245, 1-ethyl-5-methoxy-2-[4-(morpholine-4-carbonyl)-phenyl]-1H-indole-3-carbonitrile]	192 to 195 °C	> 2 µM
CCn1c(N2CCN(S(=O)(=O)C3CC3)CC2)c(C#N)c2ccc(C(F)(F)F)cc21 [Compound 842, 2-[4-(cyclopropylsulfonyl)piperazin-1-yl]-1-ethyl-6-(trifluoromethyl)-1H-indole-3-carbonitrile]	170 to 171 °C	> 2 µM
CCn1c(-c2ccc(OCCN=[N+]=[N-])cc2)c(C#N)c2ccc(OC)cc21 [Compound 266, 2-[4-(2-azidoethoxy)phenyl]-1-ethyl-6-methoxy-1H-indole-3-carbonitrile]	96 to 99 °C	0.5 to 2 µM
CCn1c(-c2ccc(N)cc2)c(C#N)c2ccc(OC)cc21 [Compound 55, 2-(4-aminophenyl)-1-ethyl-6-methoxy-1H-indole-3-carbonitrile]	183 to 185 °C	> 2 µM
CCCn1c(-c2ccc(N3CCCS3(=O)=O)cc2)c(-c2cnco2)c2ccc(OC)cc21 [Compound 805]	217 to 222 °C	> 2 µM
CCn1c(-c2ccc(N3CCN(C)S3(=O)=O)cc2)c(C#N)c2ccc(OC)cc21 [Compound 726, 1-ethyl-6-methoxy-2-[4-(5-methyl-1,1-dioxo-1λ^6-[1,2,5]thiadiazolidin-2-yl)-phenyl]-1H-indole-3-carbonitrile]	221 to 222 °C	0.5 to 2 µM
CCOc1ccc(-c2c(C#N)c3ccc(NS(=O)(=O)CC)cc3n2CC)cc1 [Compound 835, Ethanesulfonic acid [3-cyano-2-(4-ethoxyphenyl)-1-ethyl-1H-indol-6-yl]-amide]	178 to 179 °C	0.5 to 2 µM
CCn1c(-c2ccc(N3CCNS3(=O)=O)cc2)c(C#N)c2ccc(OC)cc21 [Compound 725, 2-[4-(1,1-dioxo-1λ^6-[1,2,5]thiadiazolidin-2-yl)phenyl]-1-ethyl-6-methoxy-1H-indole-3-carbonitrile]	215 to 216 °C	0.5 to 2 µM
CCn1c(C#Cc2ccc(F)cc2)c(C#N)c2ccc(OC)cc21 [Compound 67, 1-ethyl-2-(4-fluorophenylethynyl)-6-methoxy-1H-indole-3-carbonitrile]	132 to 136 °C	0.5 to 2 µM
CCOc1ccc(-c2c(C#N)c3ccc(NC(=O)OC(C)(C)C)cc3n2CC)cc1 [Compound 832, [3-cyano-2-(4-ethoxy-phenyl)-1-ethyl-1H-indol-6-yl]-carbamic acid tert-butyl ester]	206 to 207 °C	0.5 to 2 µM
CCn1cc(-c2ccccc2)c2cc([N+](=O)[O-])ccc21 [Compound 41, N-ethyl-3-phenyl-5-nitroindole]	155 to 175 °C	> 2 µM
CCn1c(C#Cc2ccc(NC(=O)C3CC3)cc2)c(C#N)c2ccc(O)cc21 [Compound 194, cyclopropanecarboxylic acid [4-(3-cyano-1-ethyl-6-hydroxy-1H-indol-2-ylethynyl)-phenyl]amide]	278 to 284 °C	0.5 to 2 µM
CCOC(=O)Nc1ccc2c(C#N)c(-c3ccc(OCC)cc3)n(CC)c2c1 [Compound 838, [3-cyano-2-(4-ethoxyphenyl)-1-ethyl-1H-indol-6-yl]-carbamic acid ethyl ester]	193 to 194 °C	0.5 to 2 µM
CCOc1ccc2c(C#N)c(-c3ccc(N4CC(=O)NC4=O)cc3)n(CC)c2c1 [Compound 776, 2-[4-(2,4-dioxo-imidazolidin-1-yl)phenyl]-6-ethoxy-1-ethyl-1H-indole-3-carbonitrile]	257 to 258 °C	< 0.5 µM
